The text below walks through data of BindingDB's records for doi:10.3109/10799899109064686 (Center For Bio-Pharmaceutical Sciences, 1991).

Structures are written as SMILES.

In test [1] the target is Sodium-dependent serotonin transporter (Rattus norvegicus, UniProt P31652).
Test [2] has as its target T1, 5-hydroxytryptamine receptor 1A (Rattus norvegicus, UniProt P19327).
T1 sequence (P19327 whole entry): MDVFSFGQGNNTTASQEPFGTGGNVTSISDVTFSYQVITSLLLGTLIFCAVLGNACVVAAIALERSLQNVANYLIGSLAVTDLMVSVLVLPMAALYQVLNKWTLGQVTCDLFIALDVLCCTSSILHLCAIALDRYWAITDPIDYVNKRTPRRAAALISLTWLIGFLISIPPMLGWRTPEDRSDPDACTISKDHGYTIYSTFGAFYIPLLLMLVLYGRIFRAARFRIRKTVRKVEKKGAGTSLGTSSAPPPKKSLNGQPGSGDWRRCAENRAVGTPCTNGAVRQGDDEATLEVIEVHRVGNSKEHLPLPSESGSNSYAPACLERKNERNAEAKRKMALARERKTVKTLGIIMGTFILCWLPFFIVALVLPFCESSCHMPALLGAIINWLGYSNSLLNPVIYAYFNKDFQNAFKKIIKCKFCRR

Sodium-dependent serotonin transporter, sequence (P31652 whole entry): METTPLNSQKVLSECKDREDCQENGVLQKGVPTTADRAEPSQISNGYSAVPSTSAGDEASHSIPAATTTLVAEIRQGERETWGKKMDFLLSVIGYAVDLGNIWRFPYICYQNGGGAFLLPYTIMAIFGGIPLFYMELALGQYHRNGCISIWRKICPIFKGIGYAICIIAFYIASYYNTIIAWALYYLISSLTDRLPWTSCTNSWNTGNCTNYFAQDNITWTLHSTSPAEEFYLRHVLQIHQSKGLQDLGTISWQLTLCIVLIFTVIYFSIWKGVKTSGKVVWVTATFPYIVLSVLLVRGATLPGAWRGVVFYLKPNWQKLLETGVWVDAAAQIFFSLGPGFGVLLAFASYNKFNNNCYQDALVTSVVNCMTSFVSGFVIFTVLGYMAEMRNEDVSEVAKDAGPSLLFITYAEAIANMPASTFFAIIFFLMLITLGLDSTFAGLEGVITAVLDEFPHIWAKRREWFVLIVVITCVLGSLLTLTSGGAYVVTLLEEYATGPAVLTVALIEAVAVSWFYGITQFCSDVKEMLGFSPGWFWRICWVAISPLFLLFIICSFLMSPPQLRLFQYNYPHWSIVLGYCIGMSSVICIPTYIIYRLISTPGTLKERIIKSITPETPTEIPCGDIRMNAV

Usually Ki stands for the dissociation constant of the complex between target and ligand, obtained from inhibition or displacement. A higher Ki goes with weaker binding. On to `N=C(N)NC(=O)c1nc(Cl)c(N2CCCCCC2)nc1N`, for which the Ki in test [1] is 7.9 µM; in test [2], greater than 10 µM.

For the compound `N=C(N)NC(=O)c1nc(Cl)c(N)nc1N` [3,5-diamino-N-carbamimidoyl-6-chloropyrazine-2-carboxamide], the Ki in test [2] is greater than 10 µM.

On to `NC(=NCc1ccccc1)NC(=O)c1nc(Cl)c(N)nc1N` [NSC_108107], for which the Ki in test [1] and in test [2] was 1.9 µM each time.
